These are literature values, as cited in patent US20260240770A1, “LIQUID FORMULATION COMPRISING TRILOSTANE” (NORBROOK LABORATORIES LIMITED, priority 2023, published 2026).

For this series the following is noted: low water solubility and high membrane permeability.

In the case of `C[C@]12CC[C@H]3[C@@H](CC[C@@]45O[C@@H]4C(O)=C(C#N)C[C@]35C)[C@@H]1CC[C@@H]2O` [Trilostane, 4α,5-epoxy-3,17β-dihydroxy-5α-androst-2-ene-2-carbonitrile], the BCS class entry is “Class Two”.
